The target in test [1] is T1, full length human IRAK4 protein (Homo sapiens, UniProt Q9NWZ3).
T1 construct: Purified full length human IRAK4 protein; purchased Signal Chem I12-10G-125
T1 sequence (Q9NWZ3 1-460): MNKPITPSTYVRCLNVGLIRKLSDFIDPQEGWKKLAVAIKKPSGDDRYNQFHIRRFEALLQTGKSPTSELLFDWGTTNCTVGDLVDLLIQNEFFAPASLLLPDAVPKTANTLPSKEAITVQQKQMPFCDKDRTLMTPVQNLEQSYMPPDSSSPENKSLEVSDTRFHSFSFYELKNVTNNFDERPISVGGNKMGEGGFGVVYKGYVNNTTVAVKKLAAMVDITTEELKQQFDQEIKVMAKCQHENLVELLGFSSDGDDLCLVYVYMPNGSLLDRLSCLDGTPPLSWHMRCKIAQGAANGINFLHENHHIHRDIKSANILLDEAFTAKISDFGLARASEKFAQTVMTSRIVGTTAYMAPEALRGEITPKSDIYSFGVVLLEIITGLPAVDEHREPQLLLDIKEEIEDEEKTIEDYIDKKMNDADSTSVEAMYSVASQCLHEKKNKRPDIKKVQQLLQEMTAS
As to the kind of experiment: IRAK4 Biochemical Assay (Promega ADP-Glo IRAK4 Kinase Enzyme System). To be noted: 3 nM enzyme, 250 μM ATP; for IC50: 2 μM MBP, 60 min at room temperature; for IRAK4 Biochemical Assay Max Inhibition (%): maximum inhibition. As to the method:
For the routine compound screening, an IRAK4 kinase assay was performed as follows using Promega ADP-Glo IRAK4 Kinase Enzyme System (Promega, Cat #2198-AD). Purified full length human IRAK4 protein (Signal Chem; Cat #I12-10G-125) was diluted to a concentration 6 nM in assay buffer (25 mM MOPS, pH 7.2, 12.5 mM β-glycerol-phosphate, 25 mM MgCl2, 5 mM EGTA, 2 mM EDTA, 0.0025% Brij-35, add 0.25 mM DTT to Kinase Assay Buffer prior to use) containing IRAK4 inhibitor at 2× the final concentration in 0.4% DMSO. The reaction was performed in PerkinElmer Proxiplate-384 plus white plate (Fisher Scientific, Cat #50-905-2761) and started by the addition of an equal volume of the assay buffer containing 4 μM native swine myelin basic protein (MBP) and 500 μM ATP to achieve a final concentration of 3 nM enzyme, 2 μM MBP, 250 μM ATP, 1× compound, and 0.2% DMSO. The kinase reaction was allowed to run for 60 min at room temperature (25-27° C.), then 5 μL of ADP-Glo was added to the reaction in each well followed by 40 minutes-incubation at RT. To detect converted […], 10 μL Detection Buffer was added into each well and Incubate at RT in dark for 30 minutes. Finally, luminescence was read using Tecan with 1000 ms of integration time. The luminescent signal positively correlates with ADP amount and kinase activity. Data was analyzed by GraphPad Prism and IC50 was calculated using function log(inhibitor) vs. response—Variable slope (four parameters). Percentage of inhibition was calculated as below:
(§1) % inhibition=(1−(Reading(Sample)−Reading(Negative Control))/(Reading(Positive Control)−Reading(Negative Control)))×100%
The 0% inhibition value comes from the Reading of Positive Control wells having 0 nM compound. The 100% inhibition value comes from the Reading of Negative Control wells having no IRAK4 kinase.

Another test deals with T2, IRAK4 (Homo sapiens, UniProt Q9NWZ3).
T2 construct: host or cells: human peripheral blood mononuclear cells (PBMCs)
T2 sequence (Q9NWZ3 1-460): T1 sequence (Q9NWZ3 1-460)
Nature of the test: IRAK4 Human PBMC TNFα Cell Based Assay (AlphaLISA). To be noted: TNFα measured. As for the experimental part: In this assay, serially diluted compounds were incubated with 1×10^4 human peripheral blood mononuclear cells (PBMCs) from STEMCELL (Cat #70025.1) per well of 384-well plate (Fisher Scientific; 50-905-2761) and cultured with TexMACS medium (Miltenyi, Cat #130-097-196), stimulated by R848 (0.5 μM) or IL-1β (10 ng/ml). Plates were covered with lids and incubated for 4 h (R848, Fisher Scientific, Cat #NC9801605) or 24 h (IL-1β, Fisher Scientific, Cat #ENRIL1BI) at 37° C. in a humidified tissue-culture incubator. After a brief centrifugation at 1000 rpm for 5 minutes, 5 μl of culture medium was used for the measurement of the TNFα amount using TNFα (human) AlphaLISA Detection Kit (PerkinElmer, Cat #AL208C) according to manufacturer's protocol. A biotinylated anti-TNFα antibody binds to the Streptavidin-coated Donor beads while another anti-TNFα antibody is conjugated to AlphaLISA Acceptor beads. In the presence of the TNFα, the beads come into close proximity. The excitation of the Donor beads causes the release of singlet oxygen molecules that triggers a cascade of energy transfer in the Acceptor beads, resulting in a sharp peak of light emission at 615 nm. AlphaLISA assay plates were read using PHERAstar. Percentage of inhibition was calculated as below:
as §1
The 0% inhibition value comes from the Reading of Positive Control wells having 0 nM compound. The 100% inhibition value comes from the Reading of Negative Control wells having no R848 or IL-1β.

Where [2] appears, read: human PBMCs stimulated by IL-1β (10 ng/ml), 24 h, read-out: IRAK4 PBMC AlphaLISA IL-1β (IC50).
The mark [3] stands for this setting: human PBMCs stimulated by R848 (0.5 μM), 4 h, read-out: IRAK4 PBMC AlphaLISA R848 (IC50).

Like-named read-outs stand apart in the source and are kept apart here.

By IC50 is commonly meant the concentration at which inhibition is half-maximal.

As to `CC[C@@H]1[C@H](F)C(=O)N[C@@H]1COc1ncc(C#CC(C)(C)NC(=O)OC(C)(C)C)c2cc(C(N)=O)c(OC)cc12` [Example 1, tert-butyl (4-(6-carbamoyl-1-(((2S,3S,4S)-3-ethyl-4-fluoro-5-oxopyrrolidin-2-yl)methoxy)-7-methoxyisoquinolin-4-yl)-2-methylbut-3-yn-2-yl)carbamate], the half-inhibitory concentration (IC50) came out at 8.4 nM in test [1], 18.1 nM at IRAK4 (setting [2]) and 16 nM on IRAK4 (setting [3]). Further, in test [1], the “IRAK4 Biochemical Assay Max Inhibition (%)” value is listed as 100.0%.
`CC[C@@H]1[C@H](F)C(=O)N[C@@H]1COc1ncc(C#CC(C)(C)N)c2cc(C(N)=O)c(OC)cc12` [Example 2, 4-(3-amino-3-methylbut-1-yn-1-yl)-1-(((2S,3S,4S)-3-ethyl-4-fluoro-5-oxopyrrolidin-2-yl)methoxy)-7-methoxyisoquinoline-6-carboxamide]: the half-maximal inhibitory concentration (IC50) in test [1] turned out to be 63 nM; on IRAK4 (setting [2]), 25 nM; at IRAK4 (setting [3]), 16 nM. Moreover, in test [1], the “IRAK4 Biochemical Assay Max Inhibition (%)” value was 100.0%.
`CC[C@@H]1[C@H](F)C(=O)N[C@@H]1COc1ncc(C#CC(C)(C)O)c2cc(C(N)=O)c(OC)cc12` [Example 3, 1-(((2S,3S,4S)-3-ethyl-4-fluoro-5-oxopyrrolidin-2-yl)methoxy)-4-(3-hydroxyl-3-methylbut-1-yn-1-yl)-7-methoxyisoquinoline-6-carboxamide]: the IC50 in test [1] came to 17 nM; on IRAK4 (setting [2]), 4.7 nM; at IRAK4 (setting [3]), 2.7 nM. The “IRAK4 Biochemical Assay Max Inhibition (%)” value in test [1] amounted to 100.0%.
Regarding `CC[C@@H]1[C@H](F)C(=O)N[C@@H]1COc1ncc(C#CC(=O)O)c2cc(C(N)=O)c(OC)cc12` [Example 4, 3-(6-carbamoyl-1-(((2S,3S,4S)-3-ethyl-4-fluoro-5-oxopyrrolidin-2-yl)methoxy)-7-methoxyisoquinolin-4-yl)propiolic acid], in test [1], half-maximal inhibition (IC50) was put at 5.7 nM and the “IRAK4 Biochemical Assay Max Inhibition (%)” value worked out at 98.0%.
In the case of `COc1cc2c(OC[C@@H]3CCC(=O)N3)ncc(C#Cc3ccc(C)cc3)c2cc1C(N)=O` [Example 7, (S)-7-methoxy-1-((5-oxopyrrolidin-2-yl)methoxy)-4-(p-tolylethynyl)isoquinoline-6-carboxamide], the IC50 at IRAK4 (setting [2]) amounted to 89 nM; at IRAK4 (setting [3]), 150 nM.
Regarding `COc1cc2c(OC[C@@H]3CCC(=O)N3)ncc(C#CCN(C)C)c2cc1C(N)=O` [Example 8, (S)-4-(3-(dimethylamino)prop-1-yn-1-yl)-7-methoxy-1-((5-oxopyrrolidin-2-yl)methoxy)isoquinoline-6-carboxamide], the 50% inhibitory concentration (IC50) turned out to be 7.5 nM in test [1], 128 nM at IRAK4 (setting [2]) and 175 nM at IRAK4 (setting [3]). The “IRAK4 Biochemical Assay Max Inhibition (%)” value in test [1] is 97.0%.
The like results for `COCC#Cc1cnc(OC[C@@H]2CCC(=O)N2)c2cc(OC)c(C(N)=O)cc12` [Example 9, (S)-7-methoxy-4-(3-methoxyprop-1-yn-1-yl)-1-((5-oxopyrrolidin-2-yl)methoxy)isoquinoline-6-carboxamide] were, in that order, 14 nM, 110 nM, 140 nM and 100.0%.
Consider `CC[C@@H]1[C@H](F)C(=O)N[C@@H]1COc1ncc(C#Cc2nn[nH]n2)c2cc(C(N)=O)c(OC)cc12` [Example 10, 4-((2H-tetrazol-5-yl)ethynyl)-1-(((2S,3S,4S)-3-ethyl-4-fluoro-5-oxopyrrolidin-2-yl)methoxy)-7-methoxyisoquinoline-6-carboxamide], for which, in test [1], the IC50 stood at 68 nM and the “IRAK4 Biochemical Assay Max Inhibition (%)” value turned out to be 100.0%.
Turning to `CC[C@@H]1[C@H](F)C(=O)N[C@@H]1COc1ncc(C#CC(=O)N(C)C)c2cc(C(N)=O)c(OC)cc12` [Example 11, 4-(3-(dimethylamino)-3-oxoprop-1-yn-1-yl)-1-(((2S,3S,4S)-3-ethyl-4-fluoro-5-oxopyrrolidin-2-yl)methoxy)-7-methoxyisoquinoline-6-carboxamide], the IC50 in test [1] worked out at 10 nM; at IRAK4 (setting [2]), 1 nM; at IRAK4 (setting [3]), 0.7 nM. For the same compound, the “IRAK4 Biochemical Assay Max Inhibition (%)” value in test [1] is listed as 95.0%.
For `CC[C@@H]1[C@H](F)C(=O)N[C@@H]1COc1ncc(C#Cc2cncnc2)c2cc(C(N)=O)c(OC)cc12` [Example 12, 1-(((2S,3S,4S)-3-ethyl-4-fluoro-5-oxopyrrolidin-2-yl)methoxy)-7-methoxy-4-(pyrimidin-5-ylethynyl)isoquinoline-6-carboxamide], the IC50 in test [1] was determined as 69 nM; on IRAK4 (setting [2]), 0.8 nM; at IRAK4 (setting [3]) it was 1.4 nM. Moreover, the “IRAK4 Biochemical Assay Max Inhibition (%)” value in test [1] was determined as 100.0%.
Regarding `CC[C@@H]1[C@H](F)C(=O)N[C@@H]1COc1ncc(C#Cc2cnccn2)c2cc(C(N)=O)c(OC)cc12` [Example 13, 1-(((2S,3S,4S)-3-ethyl-4-fluoro-5-oxopyrrolidin-2-yl)methoxy)-7-methoxy-4-(pyrazin-2-ylethynyl)isoquinoline-6-carboxamide], the IC50 in test [1] turned out to be 18 nM; on IRAK4 (setting [2]), 1.3 nM; at IRAK4 (setting [3]), 1.6 nM. Further, the “IRAK4 Biochemical Assay Max Inhibition (%)” value in test [1] amounted to 95.0%.
In the same order, the values of `CC[C@@H]1[C@H](F)C(=O)N[C@@H]1COc1ncc(C#Cc2cccnc2)c2cc(C(N)=O)c(OC)cc12` [Example 14, 1-(((2S,3S,4S)-3-ethyl-4-fluoro-5-oxopyrrolidin-2-yl)methoxy)-7-methoxy-4-(pyridin-3-ylethynyl)isoquinoline-6-carboxamide] are 29 nM, 1.3 nM, 1.6 nM and 100.0%.
Take `CC[C@@H]1[C@H](F)C(=O)N[C@@H]1COc1ccc(C#CCN(C)C)c2cc(C(N)=O)c(OC)cc12` [Example 15, 8-(3-(dimethylamino)prop-1-yn-1-yl)-5-(((2S,3S,4S)-3-ethyl-4-fluoro-5-oxopyrrolidin-2-yl)methoxy)-3-methoxy-2-naphthamide]: the 50% inhibitory concentration (IC50) in test [1] was 12 nM; on IRAK4 (setting [2]) it was 1.3 nM; at IRAK4 (setting [3]), 1.7 nM. Moreover, the “IRAK4 Biochemical Assay Max Inhibition (%)” value in test [1] amounted to 101.0%.
For `CC[C@@H]1[C@H](F)C(=O)N[C@@H]1COc1ncc(C#Cc2ncccn2)c2cc(C(N)=O)c(OC)cc12` [Example 16, 1-(((2S,3S,4S)-3-ethyl-4-fluoro-5-oxopyrrolidin-2-yl)methoxy)-7-methoxy-4-(pyrimidin-2-ylethynyl)isoquinoline-6-carboxamide], the IC50 came to 19 nM in test [1], 8.7 nM on IRAK4 (setting [2]) and 1.7 nM at IRAK4 (setting [3]). For the same compound, the “IRAK4 Biochemical Assay Max Inhibition (%)” value in test [1] came to 99.0%.

The record behind these values is US20220177446A1, “ALKYNE COMPOUNDS AS IRAK INHIBITORS, PREPARATION METHODS AND MEDICINAL USES THEREOF” (Eternity Bioscience Inc., priority 2020, published 2022).
